# Where two headings read alike, the source gives them in different places. Where a SMILES comes first, the peptide text is derived from it. Bridges are numbered along the chain shown (N, C = ends). [ ]: non-standard residue; d: D form. The star is where a group is joined. d(aIle) = CC[C@H](C)[C@@H](N)C(=O)O; d(aThr) = C[C@@H](O)[C@@H](N)C(=O)O; Hexanoyl(5-Me) = CC(C)CCCC(=O)*; Orn = NCCC[C@H](N)C(=O)O; Dhb = C/C=C(\N)C(=O)O; Dha = C=C(N)C(=O)O
# Columns and labels:
# Format in all cases: cell-based, human
# [1] = system: IGROV-ET; test: SRB colorimetric assay of cell growth and viability, IGROV-ET; conditions: 48 hours exposure; for CC50: read-out: LC50 IGROV-ET
# [2] = system: DU-145; test: SRB colorimetric assay of cell growth and viability, DU-145; conditions: 48 hours exposure
# [3] = system: HeLa; test: SRB colorimetric assay of cell growth and viability, HeLa; conditions: 48 hours exposure; for CC50: read-out: LC50 HELA
# [4] = system: LoVo; test: SRB colorimetric assay of cell growth and viability, LoVo; conditions: 48 hours exposure; for CC50: read-out: LC50 LOVO
# [5] = system: A-549; test: SRB colorimetric assay of cell growth and viability, A-549; conditions: 48 hours exposure; for GI50: read-out: GI50 A-549; for CC50: read-out: LC50 A-549
# [6] = system: HT-29; test: SRB colorimetric assay of cell growth and viability, HT-29; conditions: 48 hours exposure; for GI50: read-out: GI50 HT-29; for CC50: read-out: LC50 HT-29
# [7] = system: K-562; test: SRB colorimetric assay of cell growth and viability, K-562; conditions: 48 hours exposure; for CC50: read-out: LC50 K-562
# [8] = system: LoVo-Dox; test: SRB colorimetric assay of cell growth and viability, LoVo-Dox; conditions: 48 hours exposure; for CC50: read-out: LC50 LOVO-DOX
# Summary of the method: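 After 48 hours continuous exposure to samples spanning 10 to 10^−8 μg/mL, biomass was quantified by sulforhodamine B staining of TCA-fixed cells (OD 490 nm). Cells, 5×10^3 per well in RPMI 1640 10% FBS, had attached 18 hours first; GI, TGI and LC derived from triplicate wells.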
# [9] = system: SK-MEL-28; test: SRB colorimetric assay of cell growth and viability, SK-MEL-28; conditions: 48 hours exposure; for CC50: read-out: LC50 MEL-28
# [10] = system: HeLa-APL; test: SRB colorimetric assay of cell growth and viability, HeLa-APL; conditions: 48 hours exposure; for CC50: read-out: LC50 HELA-APL
# [11] = system: LNCaP; test: SRB colorimetric assay of cell growth and viability, LNCaP; conditions: 48 hours exposure; for GI50: read-out: GI50 LN-caP; for CC50: read-out: LC50 LN-caP
# [12] = system: IGROV-1; test: SRB colorimetric assay of cell growth and viability, IGROV-1; conditions: 48 hours exposure
# [13] = system: SK-BR-3; test: SRB colorimetric assay of cell growth and viability, SK-BR-3; conditions: 48 hours exposure
# [14] = system: PANC-1; test: SRB colorimetric assay of cell growth and viability, PANC-1; conditions: 48 hours exposure; for CC50: read-out: LC50 PANC-1
smiles,measurement,setting,value
"C=C1NC(=O)[C@H](Cc2ccccc2)NC(=O)[C@@H](C(C)C)NC(=O)[C@@H]([C@@H](C)CC)NC(=O)[C@H](NC(=O)[C@H](NC(=O)[C@H](CCCN)NC(=O)[C@H]2CCCN2C(=O)[C@H](NC(=O)[C@@H](NC(=O)[C@@H](NC(=O)[C@H](NC(=O)CCCC(C)C)C(C)C)[C@@H](C)O)C(C)C)C(C)C)[C@@H](C)CC)[C@@H](C)OC(=O)[C@H](C(C)C)NC1=O [Compound 67, [Dha^2]-KF] ({Hexanoyl(5-Me)}-[dV]TV[dV][dP][Orn][d(aIle)][d(aThr)][d(aIle)][dV]F[Dha]V; ester 8-C)",GI50,[1]; SRB,0.39 µM
same,TGI IGROV-ET,[1]; SRB,1.33E−06 Molar
same,CC50,[1]; SRB,4.53 µM
same,GI50,[2]; SRB,0.915 µM
same,LC50 (concentration causing 50% net cell kill),[2]; SRB,3.4 µM
same,TGI DU-145,[2]; SRB,1.77E−06 Molar
same,GI50,[3]; SRB,1.15 µM
same,TGI HELA,[3]; SRB,2.15E−06 Molar
same,CC50,[3]; SRB,4 µM
same,GI50,[4]; SRB,0.173 µM
same,TGI LOVO,[4]; SRB,3.40E−07 Molar
same,CC50,[4]; SRB,0.669 µM
same,TGI A-549,[5]; SRB,2.70E−06 Molar
same,GI50,[5]; SRB,1.44 µM
same,CC50,[5]; SRB,5.06 µM
same,TGI HT-29,[6]; SRB,9.63E−07 Molar
same,GI50,[6]; SRB,0.347 µM
same,CC50,[6]; SRB,4.17 µM
same,GI50,[7]; SRB,2.92 µM
same,TGI K-562,[7]; SRB,6.83E−06 Molar
same,CC50,[7]; SRB,≥ 6.83 µM
same,GI50,[8]; SRB,0.264 µM
same,TGI LOVO-DOX,[8]; SRB,5.61E−06 Molar
same,CC50,[8]; SRB,2.47 µM
same,GI50,[9]; SRB,1.13 µM
same,TGI MEL-28,[9]; SRB,2.25E−06 Molar
same,CC50,[9]; SRB,4.51 µM
same,GI50,[10]; SRB,1.09 µM
same,TGI HELA-APL,[10]; SRB,2.03E−06 Molar
same,CC50,[10]; SRB,3.75 µM
same,TGI LN-caP,[11]; SRB,4.60E−06 Molar
same,GI50,[11]; SRB,1.83 µM
same,CC50,[11]; SRB,≥ 6.83 µM
same,GI50,[12]; SRB,0.553 µM
same,LC50 (concentration causing 50% net cell killing),[12]; SRB,4.59 µM
same,TGI IGROV,[12]; SRB,1.58E−06 Molar
same,GI50,[13]; SRB,0.32 µM
same,LC50,[13]; SRB,2.21 µM
same,TGI SK-BR-3,[13]; SRB,5.56E−07 Molar
same,GI50,[14]; SRB,≥ 6.83 µM
same,TGI PANC-1,[14]; SRB,6.83E−06 Molar
same,CC50,[14]; SRB,≥ 6.83 µM
"C/C=C1\NC(=O)[C@H](Cc2ccccc2)NC(=O)[C@@H](C(C)C)NC(=O)[C@@H]([C@@H](C)CC)NC(=O)[C@H](NC(=O)[C@H](NC(=O)[C@H](CCCN)NC(=O)[C@H]2CCCN2C(=O)[C@H](NC(=O)[C@@H](NC(=O)[C@H](CCC(N)=O)NC(=O)CCCC(C)C)C(C)C)C(C)C)[C@@H](C)CC)[C@@H](C)OC(=O)[C@H](C(C)C)NC1=O [Compound 58, [Gln^12, noD-Val^13]-KF] ({Hexanoyl(5-Me)}-QV[dV][dP][Orn][d(aIle)][d(aThr)][d(aIle)][dV]F[Dhb]V; ester 7-C)",GI50,[1],≥ 7.11 µM
same,TGI IGROV-ET,[1],7.11E−06 Molar
same,CC50,[1],≥ 7.11 µM
same,GI50,[2],≥ 7.11 µM
same,LC50 (concentration causing 50% net cell kill),[2],≥ 7.11 µM
same,TGI DU-145,[2],7.11E−06 Molar
same,GI50,[3]; SRB,≥ 7.11 µM
same,TGI HELA,[3]; SRB,7.11E−06 Molar
same,CC50,[3]; SRB,≥ 7.11 µM
same,GI50,[4]; SRB,≥ 7.11 µM
same,TGI LOVO,[4]; SRB,7.11E−06 Molar
same,CC50,[4]; SRB,≥ 7.11 µM
same,TGI A-549,[5]; SRB,7.11E−06 Molar
same,GI50,[5]; SRB,≥ 7.11 µM
same,CC50,[5]; SRB,≥ 7.11 µM
same,TGI HT-29,[6]; SRB,7.11E−06 Molar
same,GI50,[6]; SRB,≥ 7.11 µM
same,CC50,[6]; SRB,≥ 7.11 µM
same,GI50,[7]; SRB,≥ 7.11 µM
same,TGI K-562,[7]; SRB,7.11E−06 Molar
same,CC50,[7]; SRB,≥ 7.11 µM
same,GI50,[8]; SRB,≥ 7.11 µM
same,TGI LOVO-DOX,[8]; SRB,7.11E−06 Molar
same,CC50,[8]; SRB,≥ 7.11 µM
same,GI50,[9],≥ 7.11 µM
same,TGI MEL-28,[9],7.11E−06 Molar
same,CC50,[9],≥ 7.11 µM
same,GI50,[10]; SRB,≥ 7.11 µM
same,TGI HELA-APL,[10]; SRB,7.11E−06 Molar
same,CC50,[10]; SRB,≥ 7.11 µM
same,TGI LN-caP,[11],7.11E−06 Molar
same,GI50,[11],≥ 7.11 µM
same,CC50,[11],≥ 7.11 µM
same,GI50,[12],≥ 7.11 µM
same,LC50 (concentration causing 50% net cell killing),[12],≥ 7.11 µM
same,TGI IGROV,[12],7.11E−06 Molar
same,GI50,[13],≥ 7.11 µM
same,LC50,[13],≥ 7.11 µM
same,TGI SK-BR-3,[13],7.11E−06 Molar
same,GI50,[14]; SRB,≥ 7.11 µM
same,TGI PANC-1,[14]; SRB,7.11E−06 Molar
same,CC50,[14]; SRB,≥ 7.11 µM
"C/C=C1\NC(=O)[C@H](Cc2ccccc2)NC(=O)[C@@H](C(C)C)NC(=O)[C@@H]([C@@H](C)CC)NC(=O)[C@H](NC(=O)[C@H](NC(=O)[C@H](CCCN)NC(=O)[C@H]2CCCN2C(=O)[C@H](NC(=O)[C@@H](NC(=O)[C@@H](NC(=O)[C@H](NC(=O)C(F)(F)C(F)(F)C(F)(F)C(F)(F)C(F)(F)C(F)(F)F)C(C)C)[C@@H](C)O)C(C)C)C(C)C)[C@@H](C)CC)[C@@H](C)OC(=O)[C@H](C(C)C)NC1=O [Compound 26, [Pfh^14]-KF]",GI50,[1],0.199 µM
same,TGI IGROV-ET,[1],5.14E−07 Molar
same,CC50,[1],2.04 µM
same,GI50,[2],0.596 µM
same,LC50 (concentration causing 50% net cell kill),[2],3.35 µM
same,TGI DU-145,[2],1.41E−06 Molar
same,GI50,[3],0.701 µM
same,TGI HELA,[3],1.57E−06 Molar
same,CC50,[3],3.51 µM
same,GI50,[4],0.654 µM
same,TGI LOVO,[4],1.38E−06 Molar
same,CC50,[4],2.99 µM
same,TGI A-549,[5],1.48E−06 Molar
same,GI50,[5],0.684 µM
same,CC50,[5],3.19 µM
same,TGI HT-29,[6],4.55E−07 Molar
same,GI50,[6],0.203 µM
same,CC50,[6],1.89 µM
same,GI50,[7],1.33 µM
same,TGI K-562,[7],2.33E−06 Molar
same,CC50,[7],4.07 µM
same,GI50,[8],0.131 µM
same,TGI LOVO-DOX,[8],2.52E−07 Molar
same,CC50,[8],0.484 µM
same,GI50,[9],0.754 µM
same,TGI MEL-28,[9],1.50E−06 Molar
same,CC50,[9],2.96 µM
same,GI50,[10],0.455 µM
same,TGI HELA-APL,[10],1.33E−06 Molar
same,CC50,[10],3.52 µM
same,TGI LN-caP,[11],1.72E−06 Molar
same,GI50,[11],0.9 µM
same,CC50,[11],3.28 µM
same,GI50,[12],0.648 µM
same,LC50 (concentration causing 50% net cell killing),[12],3.36 µM
same,TGI IGROV,[12],1.48E−06 Molar
same,GI50,[13],0.144 µM
same,LC50,[13],2.18 µM
same,TGI SK-BR-3,[13],4.92E−07 Molar
same,GI50,[14],2.01 µM
same,TGI PANC-1,[14],5.50E−06 Molar
same,CC50,[14],5.84 µM
"C/C=C1\NC(=O)[C@H](Cc2ccccc2)NC(=O)[C@@H](C(C)C)NC(=O)[C@@H]([C@@H](C)CC)NC(=O)[C@H](NC(=O)[C@H](NC(=O)[C@H](CCCN)NC(=O)[C@H]2CCCN2C(=O)[C@H](NC(=O)[C@@H](NC(=O)[C@@H](NC(=O)[C@H](NC(=O)CCCCC(C)=O)C(C)C)[C@@H](C)O)C(C)C)C(C)C)[C@@H](C)CC)[C@@H](C)OC(=O)[C@H](C(C)C)NC1=O [Compound 27, [6-OHep^14]-KF]",GI50,[1],6.7 µM
same,TGI IGROV-ET,[1],6.70E−06 Molar
same,CC50,[1],6.7 µM
same,GI50,[2],6.7 µM
same,LC50 (concentration causing 50% net cell kill),[2],6.7 µM
same,TGI DU-145,[2],6.70E−06 Molar
same,GI50,[3],6.7 µM
same,TGI HELA,[3],6.70E−06 Molar
same,CC50,[3],6.7 µM
same,GI50,[4],3.5 µM
same,TGI LOVO,[4],6.70E−06 Molar
same,CC50,[4],6.7 µM
same,TGI A-549,[5],6.70E−06 Molar
same,GI50,[5],6.7 µM
same,CC50,[5],6.7 µM
same,TGI HT-29,[6],6.70E−06 Molar
same,GI50,[6],6.7 µM
same,CC50,[6],6.7 µM
same,GI50,[7],6.7 µM
same,TGI K-562,[7],6.70E−06 Molar
same,CC50,[7],6.7 µM
same,GI50,[8],2.14 µM
same,TGI LOVO-DOX,[8],6.70E−06 Molar
same,CC50,[8],6.7 µM
same,GI50,[9],6.7 µM
same,TGI MEL-28,[9],6.70E−06 Molar
same,CC50,[9],6.7 µM
same,GI50,[10],6.7 µM
same,TGI HELA-APL,[10],6.70E−06 Molar
same,CC50,[10],6.7 µM
same,TGI LN-caP,[11],6.70E−06 Molar
same,GI50,[11],6.7 µM
same,CC50,[11],6.7 µM
same,GI50,[12],6.7 µM
same,LC50 (concentration causing 50% net cell killing),[12],6.7 µM
same,TGI IGROV,[12],6.70E−06 Molar
same,GI50,[13],3.16 µM
same,LC50,[13],6.7 µM
same,TGI SK-BR-3,[13],6.70E−06 Molar
same,GI50,[14],6.7 µM
same,TGI PANC-1,[14],6.70E−06 Molar
same,CC50,[14],6.7 µM
